{
  "source": "paper PMC11357992",
  "about": "“Non-invasive mapping of systemic neutrophil dynamics upon cardiovascular injury” (Nature Cardiovascular Research, 2023)",
  "key": {"murine blood leukocytes": {"test_system": "murine blood leukocytes", "assay": "Ex vivo uptake of mNPPFCs/ConPFCs by murine immune cells, flow cytometry", "format": "cell-based, mouse", "design": "Basal mNPPFC Uptake, flow cytometry / Stimulated mNPPFC Uptake, flow cytometry: unit not given here", "details": "for Stimulated mNPPFC Uptake, flow cytometry: LPS-stimulated conditions; for Stimulated mNPPFC Uptake, flow cytometry / Basal mNPPFC Uptake, flow cytometry: individual experiments; for Basal mNPPFC Uptake, flow cytometry: basal conditions", "procedure": "Erythrocytes were lysed by adding a fourfold volume of NH4Cl buffer (pH 7.4). After 10 min of incubation, samples were centrifuged at 350g for 10 min at 20 °C. For isolation of neutrophils from the bone marrow, mice were killed by cervical dislocation, and bones were dissected. Afterward, cells were isolated from the bone marrow using established protocols.\nFlow cytometry was performed with a FACSCanto II (BD Biosciences) or LSRFortessa (BD Biosciences). Cells were gated with appropriate FSC–SSC settings and thresholds for excluding debris. To omit dead cells, samples were stained with 1 µg ml^−1 DAPI (Merck). For analysis, cells were gated with FACSDiva 6 or FlowJo 7.1, and MFI and/or the number of positive cells was determined, depending on the experiment.\nHuman immune cells were discriminated by staining for CD45 (BioLegend, clone HI30), CD11b (BD Biosciences, clone ICRF44), CD14 (BioLegend, clone M5E2) and CD16 (BD Biosciences, clone 3G8) (lymphocytes, CD45^+CD11b^−CD16^−; classical monocytes, CD45^+CD11b^+CD14^++CD16^−; non-classical monocytes, CD45^+CD11b^+CD14^+CD16^++; neutrophils, CD45^+CD11b^+CD16^+). Murine immune cells were discriminated by staining for CD45 (BD Biosciences, clone 30-F11), CD11b (BioLegend, clone M1/70), Ly6G (BD Biosciences, clone 1A8), Ly6C (BioLegend, clone HK1.4) and F4/80 (BioLegend, clone BM8) (lymphocytes, CD45^+CD11b^−Ly6G^−; classical monocytes, CD45^+CD11b^+Ly6G^−Ly6C^hi; non-classical monocytes, CD45^+CD11b^+Ly6G^−Ly6C^lo; neutrophils, CD45^+CD11b^+Ly6G^+; eosinophils, CD45^+CD11b^+Ly6G^+SSC^hiFSC^lo). Both human and murine cells were stained for 20 min at 4 °C, followed by washing with 200 µl MACS buffer.\nIf not mentioned otherwise, neutrophil-specific peptide or Con (both at 1 µg ml^−1) were incubated for 20 min at 4 °C, while ^NPPFCs or ^ConPFCs were incubated at a concentration of 10 µl ml^−1 for the indicated period of time, followed by two washing steps with 200 µl MACS buffer.\nA total of 1 × 10^6 cells were incubated with 10 µl of the emulsion over a period of 80 min at 37 °C. At distinct time points, 50 µl of the samples were transferred into 2 ml of ice-cold MACS buffer and analyzed for rhodamine fluorescence by flow cytometry.\nExtended Data Fig. 2 Specific targeting of neutrophils by ^mNPPFCs. a, Flow cytometric analysis of murine blood leukocytes incubated with ^mNPPFCs over 80 min illustrating their predominant uptake by neutrophils (red) as compared to monocytes (blue) and lymphocytes (gray). b, To further validate specificity, binding of CD177 mAb as well as incorporation of ^mNPPFCs under basal and LPS-stimulated conditions were determined. Almost no binding/uptake into classical or non-classical monocytes as well as macrophages or eosinophils could be detected. […] Subsequently, cells were analyzed by ^1H/^19F MRI. Left: ^1H/^19F MRI of centrifugation tubes with neutrophils treated with ^mNPPFCs (lower panel) or ^ConPFCs (upper panel). The small neutrophil cell pellet is located at the bottom of the tube and can be identified by ^1H MRI (1st column) as slightly darker structure (arrows) compared to the bright phosphate buffer; corresponding ^19F MR images (2nd column) and superimposition of ^1H/^19F datasets (3rd column, with ^19F data color-coded in hot iron). Quantification of ^19F signals (4th column) clearly indicate substantial stronger ^19F uptake in ^mNPPFC-treated neutrophils (red) compared to cells incubated with ^ConPFCs (gray); a.u. = arbitrary units. Data are means ± SD of n = 4 (a), n = 6 (b), n = 6 (c) or n = 3-5 (d) independent experiments; * = […], ** = p < 0.01, *** = p < 0.001, verified by two-way ANOVA (a), one-way ANOVA (b) or two-sided students t-test (c, d). Source data"}, "[1]": {"test_system": "circulating lymphocytes, monocytes and neutrophils", "assay": "In vivo mNPPFC uptake by circulating immune cells 1 h after injection (Matrigel-LPS or PBS)", "design": "species or system mouse; in vivo uptake by circulating lymphocytes, Ctrl, raw data / in vivo uptake by circulating lymphocytes, LPS, raw data / in vivo uptake by circulating monocytes, Ctrl, raw data / in vivo uptake by circulating monocytes, LPS, raw data / in vivo uptake by circulating neutrophils, Ctrl, raw data / in vivo uptake by circulating neutrophils, LPS, raw data: unit not given here", "procedure": "To induce defined inflammatory foci, we adopted a recently developed model of localized subcutaneous inflammation. To this end, ice-cold Matrigel (Corning) was doped with LPS (1 µg µl^−1; Salmonella typhimurium, Sigma-Aldrich) and subcutaneously (s.c.) implanted into the neck of the mice. Twenty-four hours after implanting the plug, neutrophils were isolated from the blood and incubated ex vivo with ^mNPPFCs or ^ConPFCs. In separate experiments, 24 h after implantation, ^mNPPFCs or ^ConPFCs were injected intravenously, and immune cells were isolated from the blood. In further experiments, 1 d after plug injection, mice received 1 mmol per kg BW ^mNPPFCs, and, 24 h later, the bone marrow was analyzed by ^1H/^19F MRI. Thereafter, mice were killed, and neutrophils were isolated from the bone marrow for determination of cell numbers. In each case, immune cells were analyzed by flow cytometry.\nMice were kept in anesthesia (1.5% isoflurane) on a warming plate, and 1 mmol per kg BW ^mNPPFCs or ^ConPFCs were injected i.v. into the tail vein. One hour after injection, blood was collected from the vena cava, and immune cells were isolated. For in vivo uptake studies in the bone marrow, mice were treated as described above and killed 2 h later to isolate neutrophils from the bone marrow and analyzed by flow cytometry."}, "[2]": {"details": "ex vivo, murine blood, flow cytometry, panel A raw data, replicates #1-#3"}, "[3]": {"details": "mouse, Ctrl (PBS), 1 h after injection, single animals #1-#5"}, "[4]": {"details": "mouse, Matrigel-LPS, 1 h after injection, single animals #1-#3"}},
  "note": "Several values for one entry are separate records, joined by “and”; a condition that tells them apart may be missing. Equal entries are not always repeated. Where no end group is shown, it is not given here. Side-chain parts run from the residue outwards. rhodamine‑labelled PEGylated perfluoro‑15‑crown‑5 ether nanoemulsion = not defined here; carboxyfluorescein = N-terminal fluorescence label (CF)",
  "data": [
    {"substance": "mNPPFCs: PEGylated rhodamine-labeled perfluoro-15-crown-5 ether nanoemulsion (maleimide PFCs) coupled with murine neutrophil-specific peptide mNP (carboxyfluorescein-DFYKPMPNLRITGGGC([maleimide‑PEG2000‑DSPE-rhodamine‑labelled PEGylated perfluoro‑15‑crown‑5 ether nanoemulsion]); reading uncertain; also: printed as DFYKPMPNLRIT-GGG-C)", "values": [
      {"measurement": "Stimulated mNPPFC Uptake, flow cytometry", "setting": "murine blood leukocytes; classical monocytes", "result": "968 and 1199 and 1888 and 792 and 1168 and 1582"},
      {"measurement": "Basal mNPPFC Uptake, flow cytometry", "setting": "murine blood leukocytes; classical monocytes", "result": "1007 and 804 and 1494 and 1027 and 800 and 1292"},
      {"measurement": "Stimulated mNPPFC Uptake, flow cytometry", "setting": "murine blood leukocytes; eosinophils", "result": "391 and 367 and 596 and 415 and 376 and 503"},
      {"measurement": "Basal mNPPFC Uptake, flow cytometry", "setting": "murine blood leukocytes; eosinophils", "result": "880 and 341 and 789 and 755 and 384 and 656"},
      {"measurement": "uptake of PFCs, lymphocytes", "setting": "murine blood leukocytes; [2]", "result": "97.9 and 103 and 102"},
      {"measurement": "uptake of PFCs, monocytes", "setting": "murine blood leukocytes; [2]", "result": "212 and 348 and 265"},
      {"measurement": "uptake of PFCs, neutrophils", "setting": "murine blood leukocytes; [2]", "result": "2972 and 1641 and 1658"},
      {"measurement": "Stimulated mNPPFC Uptake, flow cytometry", "setting": "murine blood leukocytes; macrophages", "result": "1176 and 1188 and 969 and 1223 and 1090 and 1085"},
      {"measurement": "Basal mNPPFC Uptake, flow cytometry", "setting": "murine blood leukocytes; macrophages", "result": "945 and 874 and 865 and 808 and 877 and 873"},
      {"measurement": "Stimulated mNPPFC Uptake, flow cytometry", "setting": "murine blood leukocytes; neutrophils", "result": "17100 and 16383 and 15263 and 14366 and 16180 and 12939"},
      {"measurement": "Basal mNPPFC Uptake, flow cytometry", "setting": "murine blood leukocytes; neutrophils", "result": "10186 and 7521 and 8652 and 6287 and 6135 and 7209"},
      {"measurement": "Stimulated mNPPFC Uptake, flow cytometry", "setting": "murine blood leukocytes; non classical monocytes", "result": "277 and 303 and 242 and 252 and 281 and 240"},
      {"measurement": "Basal mNPPFC Uptake, flow cytometry", "setting": "murine blood leukocytes; non classical monocytes", "result": "138 and 192 and 152 and 172 and 167"},
      {"measurement": "incorporation into circulating neutrophils from LPS-challenged versus healthy mice", "setting": "[1]; 1 h after intravenous application", "result": "much stronger"},
      {"measurement": "in vivo uptake by circulating lymphocytes, Ctrl, raw data", "setting": "[1]; [3]", "result": "51.1 and 39.2 and 30.6 and 43.1 and 40.6"},
      {"measurement": "in vivo uptake by circulating monocytes, Ctrl, raw data", "setting": "[1]; [3]", "result": "176 and 127 and 129 and 184 and 145"},
      {"measurement": "in vivo uptake by circulating neutrophils, Ctrl, raw data", "setting": "[1]; [3]", "result": "400 and 394 and 676 and 677 and 545"},
      {"measurement": "in vivo uptake by circulating lymphocytes, LPS, raw data", "setting": "[1]; [4]", "result": "38.8 and 38.9 and 26.2"},
      {"measurement": "in vivo uptake by circulating monocytes, LPS, raw data", "setting": "[1]; [4]", "result": "150 and 223 and 453"},
      {"measurement": "in vivo uptake by circulating neutrophils, LPS, raw data", "setting": "[1]; [4]", "result": "3695 and 4794 and 6465"}
    ]}
  ]
}
